Values joined by “and” are separate entries in the source; they are usually repeats but may differ in a detail not shown here. Equal entries are not always repeated. Where two headings read alike, the source gives them in different places.
Tests used:
CYP 2C9 = CYP 2C9 (Homo sapiens (Human), UniProt P11712); test: P450-Glo CYP450 inhibition, CYP 2C9; type: in vitro ADME; settings: CYP 2C9, 10 μM; for inhibition at 10 µM: human, P450-Glo Assay System (Promega), CYP 2C9 membranes
Method: CYP450 inhibition profiling provides valuable information regarding any possible drug-drug interactions for a test compound.
All experiments were performed using P450-Glo™ Assay Systems (Promega) in accordance with the manufacturer's protocols. The P450-Glo™ Assays provide a luminescent readout-based method for measuring cytochrome P450 activity. A conventional cytochrome P450 reaction was performed by incubating the cytochrome P450 and a luminogenic cytochrome P450 substrate. The substrates in the P450-Glo™ assays are derivatives of beetle luciferin. The derivatives themselves are not substrates for luciferase but are converted by cytochrome P450s to luciferin, which in turn reacts with luciferase to produce light. The amount of light produced was directly proportional to cytochrome P450 activity. All test points were performed in quadruplicates. Control membranes (without CYPs) represented the Negative control (baseline).
The following reference compounds were used to assess CYP inhibition: […]

Parkin = Parkin (Homo sapiens (Human), UniProt O60260); test: Primary HCI assay of EGFP-Parkin translocation to mitochondria; type: cell-based; settings: for activity in EGFP-Parkin translocation to damaged mitochondria: 1 μM; for EC50: primary assay screen, Parkin translocation to mitochondria
Sequence of Parkin (O60260 whole entry): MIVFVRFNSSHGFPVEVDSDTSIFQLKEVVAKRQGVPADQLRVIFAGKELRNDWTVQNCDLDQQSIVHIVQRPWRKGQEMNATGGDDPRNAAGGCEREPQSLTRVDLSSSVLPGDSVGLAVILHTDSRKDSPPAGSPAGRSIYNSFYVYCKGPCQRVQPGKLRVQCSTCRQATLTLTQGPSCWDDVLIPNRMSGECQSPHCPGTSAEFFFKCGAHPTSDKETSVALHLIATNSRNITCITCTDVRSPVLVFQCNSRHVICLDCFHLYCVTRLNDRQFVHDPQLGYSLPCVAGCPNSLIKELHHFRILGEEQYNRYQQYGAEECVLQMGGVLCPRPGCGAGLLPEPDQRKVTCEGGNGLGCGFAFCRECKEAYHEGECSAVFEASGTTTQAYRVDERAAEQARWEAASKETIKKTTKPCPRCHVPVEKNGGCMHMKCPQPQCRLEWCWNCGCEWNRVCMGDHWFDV
Method: GFP-Parkin is localized throughout the cell in unstressed cells but translocates to mitochondria when the mitochondrial membrane potential is compromised and Parkin is activated. After automated image acquisition of fixed cells, regions of interest of each cell were defined with the analysis software. […] To quantify the relocalization of GFP-Parkin to mitochondria, the ratio of the GFP intensity in the cytoplasm and the nucleus was calculated. Under non-stressed condition, this ratio is about 1. FIG. 1B is a bar graph showing the results of the assay with a Z factor (Z′) of 0.5-0.8, which indicates its robustness and usefulness as a screening assay. Validation of the assay has been performed by using PINK1 siRNA.
FIGS. 2A-2C show a primary HCI assay with CCCP titration. FIG. 2A is a graphic description of the primary HCI assay of EGFP-Parkin translocation. HeLa cells stably expressing GFP-Parkin were seeded with 1350 cells per well in 384-well plates (25 μL per well). Cells were allowed to attach overnight before drug was added 2× concentrated in a volume of 25 μL in triplicates. After 2 h, 50 μL of a 2× low-dose CCCP (yielding a final concentration of 3.5 μM CCCP) was added to all wells that contained test compounds and for the negative control. For positive control wells, CCCP was added in a final concentration of 10 μM. After 2 h incubation with CCCP, cells were fixed and labeled with Hoechst for at least 1 h before cells were imaged. […] Values were being normalized to negative and positive control values and plotted as % activity. Z′ was calculated for quality control. Positive controls were indicated in green, negative control wells in red. Drugs that lead to more than 50% activity are considered positive (blue).
Functional testing of compounds was performed using an established primary HCI assay for Parkin translocation, which correlates well with enzymatic activation (Fiesel et al., J. Cell Science (2014) 127:3488-3504; Fiesel et al., Human Mutation (2015) 36:774-786). In brief, 1400 HeLa cells stably expressing EGFP-Parkin were seeded into optical 384-well plates (Greiner BioOne) in 25 μL media and allowed to adhere for 40 h. Compounds 1, 2, 3, 4, and 31 were added to the plate as 2× concentrated stocks. Control wells were treated with equal volume of DMSO in media. After 2 h, unless otherwise stated, CCCP was added as 2× concentrated stock with a final assay concentration of 10 μM for PC wells and 3.5 μM for test and NC wells. This low dose of CCCP was experimentally determined by a dose response curve of CCCP to result in no Parkin translocation (FIG. 13). After another 2 h, cells were fixed in 4% paraformaldehyde for 10 min and stained with Hoechst 33342 (1:5000, Invitrogen) before plates were imaged and analyzed.
Image acquisition was performed on a BD Pathway 855 with the Attovision V1.6 software (BD Biosciences). Wells were imaged with a 20× objective using a 2×2 montage with laser autofocus. EGFP exposure time was 0.0175 sec, Hoechst 0.0015 sec. Raw images were not processed and directly analyzed using a build-in ‘RING—2 output’ algorithm. Values were exported and normalized using JMP 11 software and transferred to GraphPad Prism 7 for quality control, graphing and curve fitting for DRCs with a variable slope using four parameters. […] Values were normalized to both PC and NC values from 24 wells each per plate and the Z′ score was calculated. Plates with Z′<0.5 were repeated.

[1] = system: Salmonella typhimurium and Escherichia coli tester strains; test: Bacterial reverse mutation assay (Ames Test), all tester strains; settings: for mutagenic potential for the tester strains: 50, 100 and 200 μM; for precipitate in strain-compound-GM medium mixture: final concentration 200 μM
From the text: The test used amino acid-dependent strains of Salmonella typhimurium and Escherichia coli to detect point mutations which involved substitution, addition or deletion of one or a few DNA base pairs. Point mutations were introduced in the histidine (Salmonella typhimurium) or the tryptophan (Escherichia coli) operon, making the tester strains incapable of producing these amino acids. The test detected mutations that revert the mutations present in the bacteria, restoring the functional capability to synthesize histidine or tryptophan. The revertant bacteria were detected by the ability to grow in the absence of the amino acid required by the parent test strain. A mutagenic potential of a tested compound was assessed by exposing these bacterial strains to different concentrations of the compounds and estimating number of revertant colonies grown in the absence (trace quantities) of the amino acid.
DMSO was used as the negative control.
For each experiment, tester strain cultures were grown overnight in Oxoid nutrient broth #2 at 37° C. with shaking at 235 rpm to a density of 1-2×10^9 colony forming units/mL (OD540˜2).
The tester strain (10 μL of night culture) was mixed with the test agent (10 µL of the DMSO stock) and GM liquid medium (30 μL). The obtained mixture was incubated at room temperature for 5 min in a sterile 1.5 mL tube. Then, to the tube was added 200 μL of molten top agar stored at 44° C. to prevent solidifying. After mixing with a pipette, the mixture was poured onto the surface of a GM agar plate (2.0 mL of GM agar per plate). After solidifying the top agar, the plate was inverted and incubated at 37° C. for 48 hours. Then, results were expressed as number of revertant colonies per plate.

[2] = system: CYP450 panel (1A2, 2C9, 2C19, 2D6, 3A4); test: P450-Glo CYP450 inhibition, whole panel; type: in vitro ADME; settings: 10 μM
Method: All test points were performed in quadruplicates. Control membranes (without CYPs) represented the Negative control (baseline). DMSO final concentration was 0.25%.

[3] = read-out: Inhibition, % (individual replicates)

Sequence of CYP 2C9 (P11712 whole entry): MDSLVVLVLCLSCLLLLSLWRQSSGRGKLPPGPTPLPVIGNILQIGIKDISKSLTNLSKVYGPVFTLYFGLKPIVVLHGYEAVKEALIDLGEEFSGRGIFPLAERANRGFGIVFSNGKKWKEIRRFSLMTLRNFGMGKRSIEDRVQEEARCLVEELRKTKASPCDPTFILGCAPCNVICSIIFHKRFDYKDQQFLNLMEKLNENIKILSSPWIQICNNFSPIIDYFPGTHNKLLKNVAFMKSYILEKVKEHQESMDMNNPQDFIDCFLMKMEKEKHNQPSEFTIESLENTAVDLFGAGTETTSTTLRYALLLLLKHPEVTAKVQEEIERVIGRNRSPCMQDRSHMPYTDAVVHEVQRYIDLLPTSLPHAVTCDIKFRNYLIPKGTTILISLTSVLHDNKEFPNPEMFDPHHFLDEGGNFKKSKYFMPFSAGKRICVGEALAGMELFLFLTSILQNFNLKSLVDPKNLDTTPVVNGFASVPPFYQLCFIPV

SMILES | Inhibition, % (individual replicates) (CYP 2C9) | inhibition at 10 µM (CYP 2C9; read-out: Inhibition, % Mean) | activity in EGFP-Parkin translocation to damaged mitochondria (Parkin) | EC50 (Parkin) | mutagenic potential for the tester strains [1] | precipitate in strain-compound-GM medium mixture [1] | inhibition at 10 µM (CYP 2C9; [3]) | inhibition of all 5 tested CYP450 [2]
O=C(Cn1cnc2c1CCCC2)Nc1ccc(-c2ccccc2)cc1 [Compound 1] | 40.6% and 11.1% and 15.7% and 28.5% | 24% | showed activity | 371 nM | no mutagenic potential | Precipitate was observed | – | –
CC(C)c1nccn1CC(=O)Nc1ccc(-c2ccccc2)cc1 [Compound 2] | 30.3% and 25.4% and 21.4% | 28.4% | showed activity | 549 nM | no mutagenic potential | – | 36.6% | –
CC(C)(C)Sc1ccc(NC(=O)Cn2ccnc2)cc1 [Compound 3] | 98.8% and 98.0% and 97.4% | 97.6% | showed activity | 405 nM | – | – | 96.2% | very high inhibition
O=C(Cn1ccnc1-c1ccccn1)Nc1ccc(-c2ccccc2)cc1 [Compound 4] | 27.3% and 11.9% and 4.6% and −11.1% | 8.2% | showed activity | 164 nM | no mutagenic potential | Precipitate was observed | – | did not show a significant inhibition
Cc1nc2c(c(N3CCCN(Cc4ccccc4)CC3)n1)CCCC2 [Compound 31] | 50.4% and −18.3% and 11.9% and 13.7% | 14.5% | showed activity | 990 nM | no mutagenic potential | – | – | –

From patent publication US11401255B2, “Small molecule activators of Parkin enzyme function” (Mayo Foundation for Medical Education and Research, priority 2016, dated 2022)
